Laboratory results as given in patent US20060135483A1, “Oxygen/nitrogen heterocycle inhibitors of tyrosine phosphatases” (priority 2004, published 2006).

Biological target: T1, PTP-1B (Homo sapiens, UniProt P18031)
T1 construct: PTP-1B (purified, 1 mg/mL) as a 1:250 dilution
T1 sequence (P18031 1-321 limits assumed): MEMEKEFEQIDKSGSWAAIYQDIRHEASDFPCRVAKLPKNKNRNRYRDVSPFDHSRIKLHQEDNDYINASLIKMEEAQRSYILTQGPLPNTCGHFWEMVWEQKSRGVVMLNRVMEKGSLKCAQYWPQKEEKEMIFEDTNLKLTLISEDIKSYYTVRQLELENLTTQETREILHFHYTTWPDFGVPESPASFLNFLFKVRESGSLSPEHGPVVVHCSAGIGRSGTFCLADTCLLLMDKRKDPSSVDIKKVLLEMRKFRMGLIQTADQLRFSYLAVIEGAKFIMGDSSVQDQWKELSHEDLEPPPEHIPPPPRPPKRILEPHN
Test: pNPP assay for tyrosine phosphatase inhibitory activity
Type: biochemical
Conditions: pNPP substrate 10 mM, 30° C., 10 minutes, absorbance at 405 nm
Experimental: The compounds provided herein are evaluated for biological activity as inhibitors of PTP-1B using, for example, a pNPP assay. Such an assay can be used to screen compounds for tyrosine phosphatase inhibitory activity as shown in Example 39.
A 5× stock of pNPP (p-nitrophenol phosphate) substrate is prepared as 50 mM pNPP in assay buffer. Various tyrosine phosphatase solutions can be prepared as follows: • PTP-1B (purified, 1 mg/mL) as a 1:250 dilution (to a final concentration of 4:g/mL); • TC-PTP (NEB, 1000 units in 100:L) as a 1:50 dilution (to a final concentration of 2 U/10:L (4:g/mL)); • CD45 (Calbiochem, 20:g, 400 units in 100: L) as a 1 :50 dilution (to a final concentration of 0.8 U/10:L (4:g/mL)); • LAR (NEB, 1000 units in 200:L) as a 1:75 dilution (to a final concentration of 0.7 U/10:L (4:g/mL)); and • PTP-β (UBI, #14-350, 10,000 units, 40:g/571:L) as a 1:17.5 dilution (to a final concentration of 10 U/10:L (4:g/mL));
The compound to be tested is prepared as 1:16.7 and 1:50 dilutions from stock in a total volume of 1 00:M DMSO to give final concentrations of 626 and 200:M. The reaction mixtures are prepared in a 96-well microtiter plate (on ice) as 55:L assay buffer, 5:L of the diluted compound (to a final concentration of 31.3 and 10:M), 20:L of the pNPP substrate solution (to a final concentration of 10 mM) and 20:L PTPase in assay buffer. The reactants are mixed well, the plate placed in a water bath at 30° C. and incubated for 10 minutes. The reaction is then terminated by adding 1 OO:L of 2M K2CO3 per well, and the absorbance is measured at 405 nm by conventional means.
Unless otherwise indicated, this assay was used to determine activity for the selected compounds whose activity is recorded in Table 1 and Table 2.

O=P(O)(O)C(F)(F)c1ccc(CN(c2ccc(F)cc2)c2ncc(-c3ccc(-c4nn[nH]n4)cc3)o2)cc1Br [Example 38, ({2-Bromo-4-[((4-fluoro-phenyl)-{5-[4-(2H-tetrazol-5-yl)-phenyl]-oxazol-^2-yl}-amino)-methyl]-phenyl}-difluoro-methyl)-phosphonic acid]
IC50 (Table 2): < 100 nM

CCOP(=O)(O)C(F)(F)c1ccc(CN(c2ccc(Cl)c(Cl)c2)c2ncc(-c3ccc(S(C)(=O)=O)cc3)o2)cc1Br [Example 9, {[2-Bromo-4-({(3,4-dichloro-phenyl)-[5-(4-methanesulfonyl-phenyl)-oxazol-2-yl]-amino}-methyl)-phenyl]-difluoro-methyl}-phosphonic acid monoethyl ester]
IC50 (Table 1): 10000 to 100000 nM

O=C(O)c1ccc(Oc2ccc(-c3cnc(N(Cc4ccc(C(F)(F)P(=O)(O)O)c(Br)c4)c4ccc(Cl)c(Cl)c4)o3)cc2)cc1 [Example 12, 4-(4-{2-[[3-Bromo-4-(difluoro-phosphono-methyl)-benzyl]-(3,4-dichloro-phenyl)-amino]-oxazol-5-yl}-phenoxy)-benzoic acid]
IC50 (Table 1): 100 to 500 nM

O=C(O)c1ccccc1-c1ccc(-c2cnc(N(Cc3ccc(C(F)(F)P(=O)(O)O)c(Cl)c3)c3ccc(Cl)cc3)o2)cc1 [Example 30, 4′-{2-[[3-Chloro-4-(difluoro-phosphono-methyl)-benzyl]-(4-chlorophenyl)-amino]-oxazol-5-yl}-biphenyl-2-carboxylic acid]
IC50 (Table 2): 100 to 500 nM

O=C(O)c1cccc(Oc2cccc(-c3nnc(N(Cc4ccc(C(F)(F)P(=O)(O)O)c(Br)c4)c4ccc(Cl)c(Cl)c4)o3)c2)c1 [Example 25, 3-(3-{5-[[3-Bromo-4-(difluoro-phosphono-methyl)-benzyl]-(3,4-dichloro-phenyl)-amino]-[1,3,4]oxadiazol-2-yl}-phenoxy)-benzoic acid]
IC50 (Table 1): 100 to 500 nM

COC(=O)c1cccc(Oc2cccc(-c3nnc(N(Cc4ccc(C(F)(F)P(=O)(O)O)c(Br)c4)c4ccc(Cl)c(Cl)c4)o3)c2)c1 [Example 24, 3-(3-{5-[[3-Bromo-4-(difluoro-phosphono-methyl)-benzyl]-(3,4-dichloro-phenyl)-amino]-[1,3,4]oxadiazol-2-yl}-phenoxy)-benzoic acid methyl ester]
IC50 (Table 1): 500 to 1000 nM

CS(=O)(=O)c1ccc(-c2cnc(N(Cc3ccc(C(F)(F)P(=O)(O)O)c(Br)c3)c3ccc(F)cc3)o2)cc1 [Example 32, {[2-Bromo-4-({(4-fluoro-phenyl)-[5-(4-methanesulfonyl-phenyl)-oxazol-2-yl]-amino}-methyl)-phenyl]-difluoro-methyl}-phosphonic acid]
IC50 (Table 2): < 100 nM

COC(=O)c1ccc(-c2cnc(N(Cc3ccc(C(F)(F)P(=O)(O)O)c(Br)c3)c3ccc(Cl)c(Cl)c3)o2)cc1 [Example 2, 4-{2-[[3-Bromo-4-(difluoro-phosphono-methyl)-benzyl]-(3,4-dichloro-phenyl)-amino]-oxazol-5-yl}-benzoic acid methyl ester]
IC50 (Table 1): 500 to 1000 nM

O=C(O)c1ccc(CN(c2ccc(Cl)c(Cl)c2)c2nnc(-c3cccc(Oc4cccc(C(=O)O)c4)c3)o2)cc1 [Example 21]
IC50 (Table 1): 10000 to 100000 nM

CCOP(=O)(OCC)C(F)(F)c1ccc(CN(c2ccc(Cl)c(Cl)c2)c2ncc(-c3ccc(Oc4ccc(C(=O)OC)cc4)cc3)o2)cc1Br [Example 7, 4-(4-{2-[{3-Bromo-4-[(diethoxy-phosphoryl)-difluoro-methyl]-benzyl}-(3,4-dichloro-phenyl)-amino]-oxazol-5-yl}-phenoxy)-benzoic acid methyl ester]
IC50 (Table 1): 10000 to 100000 nM

O=C(O)c1ccccc1-c1cccc(-c2cnc(N(Cc3ccc(C(F)(F)P(=O)(O)O)c(Br)c3)c3ccc(Cl)c(Cl)c3)o2)c1 [Example 20, 3′-{2-[[3-Bromo-4-(difluoro-phosphono-methyl)-benzyl]-(3,4-dichloro-phenyl)-amino]-oxazol-5-yl}-biphenyl-2-carboxylic acid]
IC50 (Table 1): 100 to 500 nM

CS(=O)(=O)c1ccc(-c2cnc(N(Cc3ccc(C(F)(F)C(=O)O)cc3)c3ccc(Cl)c(Cl)c3)o2)cc1 [[4-({(3,4-Dichloro-phenyl)-[5-(4-methanesulfonyl-phenyl)-oxazol-2-yl]-amino}-methyl)-phenyl]-difluoro-acetic acid]
IC50 (Table 1): 10000 to 100000 nM

CCCCCCCCCCCCCCCCOCCCOP(=O)(O)C(F)(F)c1ccc(CN(c2ccc(Cl)c(Cl)c2)c2ncc(-c3ccc(S(C)(=O)=O)cc3)o2)cc1Br [{[2-Bromo-4-({(3,4-dichloro-phenyl)-[5-(4-methanesulfonyl-phenyl)-oxazol-2-yl]-amino}-methyl)-phenyl]-difluoro-methyl}-phosphonic acid mono-(3-hexadecyloxy-propyl) ester]
IC50 (Table 2): 1000 to 10000 nM

COC(=O)c1ccc(Oc2ccc(-c3cnc(N(Cc4ccc(C(F)(F)P(=O)(O)O)c(Br)c4)c4ccc(Cl)c(Cl)c4)o3)cc2)cc1 [Example 10, 4-(4-{2-[[3-Bromo-4-(difluoro-phosphono-methyl)-benzyl]-(3,4-dichloro-phenyl)-amino]-oxazol-5-yl}-phenoxy)-benzoic acid methyl ester]
IC50 (Table 1): 1000 to 10000 nM

COCCCN(Cc1ccc(C(F)(F)P(=O)(O)O)c(Br)c1)c1ncc(-c2ccc(S(C)(=O)=O)cc2)o1 [[(2-Bromo-4-{[[5-(4-methanesulfonyl-phenyl)-oxazol-2-yl]-(3-methoxy-propyl)-amino]-methyl}-phenyl)-difluoro-methyl]-phosphonic acid]
IC50 (Table 2): 100 to 500 nM

CS(=O)(=O)c1ccc(-c2cnc(N(Cc3ccc(C(F)(F)P(=O)(O)O)c(Cl)c3)c3ccc(F)cc3)o2)cc1 [{[2-Chloro-4-({(4-fluoro-phenyl)-[5-(4-methanesulfonyl-phenyl)-oxazol-2-yl]-amino}-methyl)-phenyl]-difluoro-methyl}-phosphonic acid]
IC50 (Table 2): 100 to 500 nM

COC(=O)C(Oc1cccc(-c2cnc(N(Cc3ccc(C(F)(F)P(=O)(O)O)c(Br)c3)c3ccc(Cl)c(Cl)c3)o2)c1)c1ccccc1 (stereo not shown) [Example 13, (3-{2-[[3-Bromo-4-(difluoro-phosphono-methyl)-benzyl]-(3,4-dichloro-phenyl)-amino]-oxazol-5-yl}-phenoxy)-phenyl-acetic acid methyl ester]
IC50 (Table 1): 1000 to 10000 nM

COC(=O)c1ccccc1-c1cccc(-c2cnc(N(Cc3ccc(C(F)(F)P(=O)(O)O)c(Br)c3)c3ccc(Cl)c(Cl)c3)o2)c1 [Example 19, 3′-{2-[[3-Bromo-4-(difluoro-phosphono-methyl)-benzyl]-(3,4-dichloro-phenyl)-amino]-oxazol-5-yl}-biphenyl-2-carboxylic acid methyl ester]
IC50 (Table 1): 1000 to 10000 nM

CCOC(=O)C(C)NP(=O)(O)C(F)(F)c1ccc(CN(c2ccc(Cl)c(Cl)c2)c2ncc(-c3ccc(S(C)(=O)=O)cc3)o2)cc1Br [Example 34, {[2-Bromo-4-({(3,4-dichloro-phenyl)-[5-(4-methanesulfonyl-phenyl)-oxazol-2-yl]-amino}-methyl)-phenyl]-difluoro-methyl}-phosphonic acid mono-(L-alanylethyl ester) amidate]
IC50 (Table 2): 100 to 500 nM

CS(=O)(=O)c1ccc(-c2cnc(N(Cc3ccc(C(F)(F)P(=O)(O)Oc4ccccc4)c(Br)c3)c3ccc(F)cc3)o2)cc1 [{[2-Bromo-4-({(4-fluoro-phenyl)-[5-(4-methanesulfonyl-phenyl)-oxazol-2-yl]-amino}-methyl)-phenyl]-difluoro-methyl}-phosphonic acid monophenyl ester]
IC50 (Table 2): 10000 to 100000 nM

CCCCCCCCCCCCCCCCOCCCOP(=O)(O)C(F)(F)c1ccc(CN(c2ccc(F)cc2)c2ncc(-c3ccc(S(C)(=O)=O)cc3)o2)cc1Br [{[2-Bromo-4-({(4-fluoro-phenyl)-[5-(4-methanesulfonyl-phenyl)-oxazol-2-yl]-amino}-methyl)-phenyl]-difluoro-methyl}-phosphonic acid mono-(3-hexadecyloxy-propyl) ester]
IC50 (Table 2): 1000 to 10000 nM

O=C(O)c1ccccc1Oc1cccc(-c2cnc(N(Cc3ccc(C(F)(F)P(=O)(O)O)c(Br)c3)c3ccc(Cl)c(Cl)c3)o2)c1 [Example 18, 2-(3-{2-[[3-Bromo-4-(difluoro-phosphono-methyl)-benzyl]-(3,4-dichloro-phenyl)-amino]-oxazol-5-yl}-phenoxy)-benzoic acid]
IC50 (Table 1): 100 to 500 nM
